The results in this text go back to patent US20140058103A1, “Inhibitors of PI3K-Delta and Methods of Their Use and Manufacture” (Exelixis, Inc., priority 2010, published 2014).

The assay addresses PI3K delta (Homo sapiens, UniProt O00329). Description: Luciferase-coupled chemiluminescence kinase assay (ATP consumption, KinaseGlo). It counts as biochemical. The method, boiled down:
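Compound, kinase and ATP (≤ KM) reacted 2 h at ambient temperature, then remaining ATP quantified with luciferase-luciferin (KinaseGlo) luminescence as percent consumed.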
On the technique in general: Kinase-Glo measures the ATP left after a reaction by luminescence.

As a reminder, the IC50 is the concentration at which inhibition is half-maximal.

Chain of PI3K delta (O00329 whole entry): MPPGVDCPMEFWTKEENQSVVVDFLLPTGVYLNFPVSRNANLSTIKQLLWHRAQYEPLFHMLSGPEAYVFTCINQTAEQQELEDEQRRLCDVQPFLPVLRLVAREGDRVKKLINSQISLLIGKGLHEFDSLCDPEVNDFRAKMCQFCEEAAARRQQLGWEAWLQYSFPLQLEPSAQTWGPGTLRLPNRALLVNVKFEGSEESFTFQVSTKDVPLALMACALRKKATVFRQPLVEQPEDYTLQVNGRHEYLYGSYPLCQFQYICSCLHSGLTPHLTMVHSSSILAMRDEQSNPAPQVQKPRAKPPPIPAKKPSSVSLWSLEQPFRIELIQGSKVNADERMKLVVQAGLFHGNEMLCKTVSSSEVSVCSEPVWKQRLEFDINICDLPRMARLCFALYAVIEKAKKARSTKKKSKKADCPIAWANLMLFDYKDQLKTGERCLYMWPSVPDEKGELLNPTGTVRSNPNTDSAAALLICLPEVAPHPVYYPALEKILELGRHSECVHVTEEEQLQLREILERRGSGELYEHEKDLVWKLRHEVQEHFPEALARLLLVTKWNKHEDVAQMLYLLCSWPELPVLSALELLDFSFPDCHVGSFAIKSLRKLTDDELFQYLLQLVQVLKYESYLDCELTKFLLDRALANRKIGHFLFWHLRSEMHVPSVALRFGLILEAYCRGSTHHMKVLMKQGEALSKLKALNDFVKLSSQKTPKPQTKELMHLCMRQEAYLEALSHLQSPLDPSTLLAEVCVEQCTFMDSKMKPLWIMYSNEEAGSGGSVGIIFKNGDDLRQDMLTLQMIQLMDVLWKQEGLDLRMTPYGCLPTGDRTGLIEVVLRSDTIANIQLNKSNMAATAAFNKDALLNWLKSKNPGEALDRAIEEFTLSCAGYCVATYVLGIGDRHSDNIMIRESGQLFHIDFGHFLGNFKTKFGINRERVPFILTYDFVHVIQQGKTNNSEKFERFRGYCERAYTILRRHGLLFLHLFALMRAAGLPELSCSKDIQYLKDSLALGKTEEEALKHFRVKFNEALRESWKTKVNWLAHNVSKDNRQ
Chain of PI3K delta (P27986 whole entry partner): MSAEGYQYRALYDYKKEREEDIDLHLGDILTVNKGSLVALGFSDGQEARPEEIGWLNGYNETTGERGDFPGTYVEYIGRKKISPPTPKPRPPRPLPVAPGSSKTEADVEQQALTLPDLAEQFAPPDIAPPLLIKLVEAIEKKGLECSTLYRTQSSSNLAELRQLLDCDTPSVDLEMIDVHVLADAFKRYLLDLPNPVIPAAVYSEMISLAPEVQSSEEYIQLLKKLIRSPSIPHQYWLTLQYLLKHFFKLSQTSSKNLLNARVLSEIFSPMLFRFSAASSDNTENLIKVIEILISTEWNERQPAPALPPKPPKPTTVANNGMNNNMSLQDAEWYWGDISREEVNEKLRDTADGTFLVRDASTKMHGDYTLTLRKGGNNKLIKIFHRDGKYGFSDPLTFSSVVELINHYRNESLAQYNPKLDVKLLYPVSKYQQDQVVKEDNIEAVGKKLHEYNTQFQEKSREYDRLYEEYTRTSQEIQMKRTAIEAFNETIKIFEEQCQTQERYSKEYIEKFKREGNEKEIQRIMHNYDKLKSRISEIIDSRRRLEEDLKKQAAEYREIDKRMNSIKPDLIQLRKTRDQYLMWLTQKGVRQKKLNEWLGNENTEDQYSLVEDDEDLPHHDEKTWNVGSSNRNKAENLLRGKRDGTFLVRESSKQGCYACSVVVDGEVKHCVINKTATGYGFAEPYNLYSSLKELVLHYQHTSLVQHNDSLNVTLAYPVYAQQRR

The compound `CC(C)CNC(=O)c1nc2c(N3CCC(n4c(=O)[nH]c5ccccc54)CC3)ncnc2n1C` [Compound 67, 9-methyl-N-(2-methylpropyl)-6-[4-(2-oxo-2,3-dihydro-1H-benzimidazol-1-yl)piperidin-1-yl]-9H-purine-8-carboxamide] returned a 50% inhibitory concentration (IC50) of under 50 nM.
`Cn1c(C(=O)N2CCCC2)nc2c(N3CCC(n4c(=O)[nH]c5ccccc54)CC3)ncnc21` [Compound 68, 1-{1-[9-methyl-8-(pyrrolidin-1-ylcarbonyl)-9H-purin-6-yl]piperidin-4-yl}-1,3-dihydro-2H-benzimidazol-2-one]: the IC50 was in the range of 250 to 500 nM.
For the compound `CCCNC(=O)c1nc2c(N3CCC(n4c(=O)[nH]c5ccccc54)CC3)ncnc2n1C` [Compound 69, 9-methyl-6-[4-(2-oxo-2,3-dihydro-1H-benzimidazol-1-yl)piperidin-1-yl]-N-propyl-9H-purine-8-carboxamide], the IC50 lay within 50 to 250 nM.
For `CCCCCNC(=O)c1nc2c(N3CCC(n4c(=O)[nH]c5ccccc54)CC3)ncnc2n1C` [Compound 70, 9-methyl-6-[4-(2-oxo-2,3-dihydro-1H-benzimidazol-1-yl)piperidin-1-yl]-N-pentyl-9H-purine-8-carboxamide] the value was 250 to 500 nM.
Compound `CCCCCCNC(=O)c1nc2c(N3CCC(n4c(=O)[nH]c5ccccc54)CC3)ncnc2n1C` [Compound 71, N-hexyl-9-methyl-6-[4-(2-oxo-2,3-dihydro-1H-benzimidazol-1-yl)piperidin-1-yl]-9H-purine-8-carboxamide] came in with a half-inhibitory concentration (IC50) of 250 to 500 nM.
`CC(C)CCNC(=O)c1nc2c(N3CCC(n4c(=O)[nH]c5ccccc54)CC3)ncnc2n1C` [Compound 72, 9-methyl-N-(3-methylbutyl)-6-[4-(2-oxo-2,3-dihydro-1H-benzimidazol-1-yl)piperidin-1-yl]-9H-purine-8-carboxamide]: the IC50 fell in the range of 50 to 250 nM.
Consider `Cn1c(C(=O)N2CCC(O)C2)nc2c(N3CCC(n4c(=O)[nH]c5ccccc54)CC3)ncnc21` (centres unmarked) [Compound 73, 1-(1-[8-[(3-hydroxypyrrolidin-1-yl)carbonyl]-9-methyl-9H-purin-6-yl]piperidin-4-yl)-1,3-dihydro-2H-benzimidazol-2-one], for which the half-maximal inhibitory concentration (IC50) fell in the range of 500 to 1500 nM.
Then `Cn1c(C(=O)N2CC(O)C2)nc2c(N3CCC(n4c(=O)[nH]c5ccccc54)CC3)ncnc21` [Compound 74, 1-(1-{8-[(3-hydroxyazetidin-1-yl)carbonyl]-9-methyl-9H-purin-6-yl}piperidin-4-yl)-1,3-dihydro-2H-benzimidazol-2-one], with 50 to 250 nM; and `Cn1c(C(=O)NC(C)(C)C)nc2c(N3CCC4(CC3)C(=O)Nc3ccccc34)ncnc21` [Compound 75, N-(1,1-dimethylethyl)-9-methyl-6-(2-oxo-1,2-dihydro-1′H-spiro[indole-3,4′-piperidin]-1′-yl)-9H-purine-8-carboxamide], with 50 to 250 nM; and `COC(=O)c1nc2c(N3CCC4(CC3)C(=O)Nc3ccccc34)ncnc2n1C` [Compound 76, Methyl 9-methyl-6-(2-oxo-1,2-dihydro-1′H-spiro[indole-3,4′-piperidin]-1′-yl)-9H-purine-8-carboxylate], with 500 to 1500 nM.
`Cn1c(C(=O)NCC2CCOCC2)nc2c(N3CCC4(CC3)C(=O)Nc3ccccc34)ncnc21` [Compound 77, 9-methyl-6-(2-oxo-1,2-dihydro-1′H-spiro[indole-3,4′-piperidin]-1′-yl)-N-(tetrahydro-2H-pyran-4-ylmethyl)-9H-purine-8-carboxamide] showed an IC50 of 50 to 250 nM.
`COC(=O)c1nc2c(N3CCC(n4c(=O)[nH]c5ccccc54)CC3)ncnc2n1C` [Compound 78, Methyl 9-methyl-6-[4-(2-oxo-2,3-dihydro-1H-benzimidazol-1-yl)piperidin-1-yl]-9H-purine-8-carboxylate] gave a 50% inhibitory concentration (IC50) of 500 to 1500 nM.
Compound `Cn1c(C(=O)OCC2CC2)nc2c(N3CCC(n4c(=O)[nH]c5ccccc54)CC3)ncnc21` [Compound 79, Cyclopropylmethyl 9-methyl-6-[4-(2-oxo-2,3-dihydro-1H-benzimidazol-1-yl)piperidin-1-yl]-9H-purine-8-carboxylate] showed an IC50 of 50 to 250 nM.
Turning to `CCOC(=O)c1nc2c(N3CCC(n4c(=O)[nH]c5ccccc54)CC3)ncnc2n1C` [Compound 80, Ethyl 9-methyl-6-[4-(2-oxo-2,3-dihydro-1H-benzimidazol-1-yl)piperidin-1-yl]-9H-purine-8-carboxylate], the concentration for half-maximal inhibition (IC50) lay within 500 to 1500 nM.
For the compound `Cc1nc2c(N3CCC(n4c(=O)[nH]c5ccccc54)CC3)ncnc2n1C` [Compound 81, 1-[1-(8,9-Dimethyl-9H-purin-6-yl)piperidin-4-yl]-1,3-dihydro-2H-benzimidazol-2-one], the 50% inhibitory concentration (IC50) is 500 to 1500 nM.
`Cn1c(C(=O)NCC2CCCCO2)nc2c(N3CCC4(CC3)C(=O)Nc3ccccc34)ncnc21` (centres unmarked) [Compound 82, 9-methyl-6-(2-oxo-1,2-dihydro-1′H-spiro[indole-3,4′-piperidin]-1′-yl)-N-(tetrahydro-2H-pyran-2-ylmethyl)-9H-purine-8-carboxamide] registered a half-maximal inhibitory concentration (IC50) of 500 to 1500 nM.
Take `Cn1c(C(=O)NCC(C)(C)O)nc2c(N3CCC4(CC3)C(=O)Nc3ccccc34)ncnc21` [Compound 83, N-(2-hydroxy-2-methylpropyl)-9-methyl-6-(2-oxo-1,2-dihydro-1′H-spiro[indole-3,4′-piperidin]-1′-yl)-9H-purine-8-carboxamide]: the half-inhibitory concentration (IC50) is 50 to 250 nM.
Then `CC(NC(=O)c1nc2c(N3CCC4(CC3)C(=O)Nc3ccccc34)ncnc2n1C)C1CC1` (centres unmarked) [Compound 84, N-(1-cyclopropylethyl)-9-methyl-6-(2-oxo-1,2-dihydro-1′H-spiro[indole-3,4′-piperidin]-1′-yl)-9H-purine-8-carboxamide], with 50 to 250 nM.
`Cn1c(C(=O)NCC2CCCO2)nc2c(N3CCC4(CC3)C(=O)Nc3ccccc34)ncnc21` (centres unmarked) [Compound 85, 9-methyl-6-(2-oxo-1,2-dihydro-1′H-spiro[indole-3,4′-piperidin]-1′-yl)-N-(tetrahydrofuran-2-ylmethyl)-9H-purine-8-carboxamide] came in with an IC50 of 500 to 1500 nM.
The compound `Cn1c(C(=O)NC2CCOCC2)nc2c(N3CCC4(CC3)C(=O)Nc3ccccc34)ncnc21` [Compound 86, 9-methyl-6-(2-oxo-1,2-dihydro-1′H-spiro[indole-3,4′-piperidin]-1′-yl)-N-(tetrahydro-2H-pyran-4-yl)-9H-purine-8-carboxamide] showed an IC50 of 50 to 250 nM.
`Cn1c(C(=O)N[C@H]2CC[C@H](O)CC2)nc2c(N3CCC4(CC3)C(=O)Nc3ccccc34)ncnc21` [Compound 87, N-(trans-4-hydroxycyclohexyl)-9-methyl-6-(2-oxo-1,2-dihydro-1′H-spiro[indole-3,4′-piperidin]-1′-yl)-9H-purine-8-carboxamide] came in with a half-inhibitory concentration (IC50) of under 50 nM.
Regarding `Cn1c(C(=O)NCC2CCCCC2)nc2c(N3CCC4(CC3)C(=O)Nc3ccccc34)ncnc21` [Compound 88, N-(cyclohexylmethyl)-9-methyl-6-(2-oxo-1,2-dihydro-1′H-spiro[indole-3,4′-piperidin]-1′-yl)-9H-purine-8-carboxamide], the half-maximal inhibitory concentration (IC50) fell in the range of 500 to 1500 nM.
As for `Cn1c(C(=O)NCC2CCC2)nc2c(N3CCC4(CC3)C(=O)Nc3ccccc34)ncnc21` [Compound 89, N-(cyclobutylmethyl)-9-methyl-6-(2-oxo-1,2-dihydro-1′H-spiro[indole-3,4′-piperidin]-1′-yl)-9H-purine-8-carboxamide], the half-inhibitory concentration (IC50) lay within 50 to 250 nM.
For `Cn1c(C(=O)N2CCC2)nc2c(N3CCC4(CC3)C(=O)Nc3ccccc34)ncnc21` [Compound 90, 1′-[8-(azetidin-1-ylcarbonyl)-9-methyl-9H-purin-6-yl]spiro[indole-3,4′-piperidin]-2(1H)-one] the value was 250 to 500 nM; for `CNC(=O)c1nc2c(N3CCC(n4c(=O)[nH]c5ccccc54)CC3)ncnc2n1C` [Compound 91, N,9-dimethyl-6-[4-(2-oxo-2,3-dihydro-1H-benzimidazol-1-yl)piperidin-1-yl]-9H-purine-8-carboxamide], 500 to 1500 nM.
For `CCc1nc2c(N3CCC(n4c(=O)[nH]c5ccccc54)CC3)ncnc2n1C` [Compound 92, 1-[1-(8-ethyl-9-methyl-9H-purin-6-yl)piperidin-4-yl]-1,3-dihydro-2H-benzimidazol-2-one], the IC50 lay within 500 to 1500 nM.
`CCCCc1nc2c(N3CCC(n4c(=O)[nH]c5ccccc54)CC3)ncnc2n1C` [Compound 93, 1-[1-(8-butyl-9-methyl-9H-purin-6-yl)piperidin-4-yl]-1,3-dihydro-2H-benzimidazol-2-one]: the 50% inhibitory concentration (IC50) was in the range of 500 to 1500 nM.
`CON(C)C(=O)c1nc2c(N3CCC(n4c(=O)[nH]c5ccccc54)CC3)ncnc2n1C` [Compound 94, N,9-dimethyl-N-(methyloxy)-6-[4-(2-oxo-2,3-dihydro-1H-benzimidazol-1-yl)piperidin-1-yl]-9H-purine-8-carboxamide] yielded an IC50 of 500 to 1500 nM.
Compound `CC(=O)c1nc2c(N3CCC(n4c(=O)[nH]c5ccccc54)CC3)ncnc2n1C` [Compound 95, 1-[1-(8-Acetyl-9-methyl-9H-purin-6-yl)piperidin-4-yl]-1,3-dihydro-2H-benzimidazol-2-one] had an IC50 of 250 to 500 nM.
Take `Cn1c(C(=O)NCC(C)(C)C)nc2c(N3CCC4(CC3)C(=O)Nc3ccccc34)ncnc21` [Compound 96, N-(2,2-dimethylpropyl)-9-methyl-6-(2-oxo-1,2-dihydro-1′H-spiro[indole-3,4′-piperidin]-1′-yl)-9H-purine-8-carboxamide]: the concentration for half-maximal inhibition (IC50) is 50 to 250 nM.
With `CCn1c(C(=O)NCC2CC2)nc2c(N3CCC(n4c(=O)[nH]c5ccccc54)CC3)ncnc21` [Compound 97, N-(cyclopropylmethyl)-9-ethyl-6-[4-(2-oxo-2,3-dihydro-1H-benzimidazol-1-yl)piperidin-1-yl]-9H-purine-8-carboxamide], the 50% inhibitory concentration (IC50) was under 50 nM.
`Cn1c(C(=O)NCC2CC2)nc2c(N3CCC4(C3)C(=O)Nc3ccccc34)ncnc21` (centres unmarked) [Compound 98, N-(cyclopropylmethyl)-9-methyl-6-(2-oxo-1,2-dihydro-1′H-spiro[indole-3,3′-pyrrolidin]-1′-yl)-9H-purine-8-carboxamide] gave a half-inhibitory concentration (IC50) of 500 to 1500 nM.
